Results: patent US11685734B2, “ATM kinase inhibitors and compositions and methods of use thereof” (CHDI Foundation, Inc., priority 2019, dated 2023)

What was measured:
[1] = target: Recombinant, full length human FLAG-tagged ATM (Homo sapiens (Human), UniProt Q13315); assay: ATM ELISA for p53 S15 phosphorylation; assay type: biochemical; settings: for IC50: 0.75 nM ATM, 25 nM p53, 10 μM ATP, 30 min at 20° C., read-out: ATM BIO IC50
Procedure: ATM: Recombinant, full length human FLAG-tagged ATM activity (Eurofins 14-933) was measured in an ELISA for p53 S15 phosphorylation, in a 384 well V-bottom polypropylene plate (Greiner Bio One 781280). Reactions contained 0.75 nM ATM, 25 nM full length myc tagged p53 (Eurofins 23-034), 10 μM UltraPure ATP (Promega V915B) and serial dilutions of inhibitors (0.1% DMSO final) in 25 mM HEPES, pH 7.5. 5 mM MgCl2, 2.5 mM MnCl2, 0.006% Brij-35, 0.5% glycerol, 0.1 mg/ml BSA, 0.5 mM DTT and were allowed to proceed for 30 min at 20° C. 70 mM EDTA final terminated the kinase reactions. An aliquot of the terminated reaction (25 μl) was transferred to a 384-well, high binding microplate (Greiner Bio One 781061), precoated with anti-myc capture antibody overnight (Millipore 05-724) diluted in 1:1000 in PBS, then blocked with Odyssey blocking buffer (LI-COR Biosciences 92740000) for 60 min at 20° C. The terminated reaction was allowed to capture for 2 h at 20° C. Phosphorylation was measured using an antibody specific to p53 S15 phosphorylation (1:5000 Abcam ab38497), anti-rabbit HRP (1:1000 Cell Signalling Technology, 7074) and TMB (ab171522). Antibodies were diluted in Odyssey blocking buffer and incubated for 60 min at 20° C. Three washes with PBS containing 0.05% (v/v) Tween 20 (PBS-T) were performed between each incubation. The TMB reaction was stopped with an equal volume of 0.2 M sulfuric acid and absorbance read at 450 nm on the Perkin Elmer Envision within 30 min of terminating the reaction. […] IC50 values represent the mean from at least two independent experiments.

[2] = target: cellular ATM activity (Homo sapiens (Human), UniProt Q13315); assay: Inhibition of cellular ATM activity: etoposide-stimulated KAP1 phosphorylation in U20S cells; assay type: cell-based; settings: 100 μM etoposide, 60 min, read-out: ATM CELL IC50
cellular ATM activity, sequence (Q13315 whole entry): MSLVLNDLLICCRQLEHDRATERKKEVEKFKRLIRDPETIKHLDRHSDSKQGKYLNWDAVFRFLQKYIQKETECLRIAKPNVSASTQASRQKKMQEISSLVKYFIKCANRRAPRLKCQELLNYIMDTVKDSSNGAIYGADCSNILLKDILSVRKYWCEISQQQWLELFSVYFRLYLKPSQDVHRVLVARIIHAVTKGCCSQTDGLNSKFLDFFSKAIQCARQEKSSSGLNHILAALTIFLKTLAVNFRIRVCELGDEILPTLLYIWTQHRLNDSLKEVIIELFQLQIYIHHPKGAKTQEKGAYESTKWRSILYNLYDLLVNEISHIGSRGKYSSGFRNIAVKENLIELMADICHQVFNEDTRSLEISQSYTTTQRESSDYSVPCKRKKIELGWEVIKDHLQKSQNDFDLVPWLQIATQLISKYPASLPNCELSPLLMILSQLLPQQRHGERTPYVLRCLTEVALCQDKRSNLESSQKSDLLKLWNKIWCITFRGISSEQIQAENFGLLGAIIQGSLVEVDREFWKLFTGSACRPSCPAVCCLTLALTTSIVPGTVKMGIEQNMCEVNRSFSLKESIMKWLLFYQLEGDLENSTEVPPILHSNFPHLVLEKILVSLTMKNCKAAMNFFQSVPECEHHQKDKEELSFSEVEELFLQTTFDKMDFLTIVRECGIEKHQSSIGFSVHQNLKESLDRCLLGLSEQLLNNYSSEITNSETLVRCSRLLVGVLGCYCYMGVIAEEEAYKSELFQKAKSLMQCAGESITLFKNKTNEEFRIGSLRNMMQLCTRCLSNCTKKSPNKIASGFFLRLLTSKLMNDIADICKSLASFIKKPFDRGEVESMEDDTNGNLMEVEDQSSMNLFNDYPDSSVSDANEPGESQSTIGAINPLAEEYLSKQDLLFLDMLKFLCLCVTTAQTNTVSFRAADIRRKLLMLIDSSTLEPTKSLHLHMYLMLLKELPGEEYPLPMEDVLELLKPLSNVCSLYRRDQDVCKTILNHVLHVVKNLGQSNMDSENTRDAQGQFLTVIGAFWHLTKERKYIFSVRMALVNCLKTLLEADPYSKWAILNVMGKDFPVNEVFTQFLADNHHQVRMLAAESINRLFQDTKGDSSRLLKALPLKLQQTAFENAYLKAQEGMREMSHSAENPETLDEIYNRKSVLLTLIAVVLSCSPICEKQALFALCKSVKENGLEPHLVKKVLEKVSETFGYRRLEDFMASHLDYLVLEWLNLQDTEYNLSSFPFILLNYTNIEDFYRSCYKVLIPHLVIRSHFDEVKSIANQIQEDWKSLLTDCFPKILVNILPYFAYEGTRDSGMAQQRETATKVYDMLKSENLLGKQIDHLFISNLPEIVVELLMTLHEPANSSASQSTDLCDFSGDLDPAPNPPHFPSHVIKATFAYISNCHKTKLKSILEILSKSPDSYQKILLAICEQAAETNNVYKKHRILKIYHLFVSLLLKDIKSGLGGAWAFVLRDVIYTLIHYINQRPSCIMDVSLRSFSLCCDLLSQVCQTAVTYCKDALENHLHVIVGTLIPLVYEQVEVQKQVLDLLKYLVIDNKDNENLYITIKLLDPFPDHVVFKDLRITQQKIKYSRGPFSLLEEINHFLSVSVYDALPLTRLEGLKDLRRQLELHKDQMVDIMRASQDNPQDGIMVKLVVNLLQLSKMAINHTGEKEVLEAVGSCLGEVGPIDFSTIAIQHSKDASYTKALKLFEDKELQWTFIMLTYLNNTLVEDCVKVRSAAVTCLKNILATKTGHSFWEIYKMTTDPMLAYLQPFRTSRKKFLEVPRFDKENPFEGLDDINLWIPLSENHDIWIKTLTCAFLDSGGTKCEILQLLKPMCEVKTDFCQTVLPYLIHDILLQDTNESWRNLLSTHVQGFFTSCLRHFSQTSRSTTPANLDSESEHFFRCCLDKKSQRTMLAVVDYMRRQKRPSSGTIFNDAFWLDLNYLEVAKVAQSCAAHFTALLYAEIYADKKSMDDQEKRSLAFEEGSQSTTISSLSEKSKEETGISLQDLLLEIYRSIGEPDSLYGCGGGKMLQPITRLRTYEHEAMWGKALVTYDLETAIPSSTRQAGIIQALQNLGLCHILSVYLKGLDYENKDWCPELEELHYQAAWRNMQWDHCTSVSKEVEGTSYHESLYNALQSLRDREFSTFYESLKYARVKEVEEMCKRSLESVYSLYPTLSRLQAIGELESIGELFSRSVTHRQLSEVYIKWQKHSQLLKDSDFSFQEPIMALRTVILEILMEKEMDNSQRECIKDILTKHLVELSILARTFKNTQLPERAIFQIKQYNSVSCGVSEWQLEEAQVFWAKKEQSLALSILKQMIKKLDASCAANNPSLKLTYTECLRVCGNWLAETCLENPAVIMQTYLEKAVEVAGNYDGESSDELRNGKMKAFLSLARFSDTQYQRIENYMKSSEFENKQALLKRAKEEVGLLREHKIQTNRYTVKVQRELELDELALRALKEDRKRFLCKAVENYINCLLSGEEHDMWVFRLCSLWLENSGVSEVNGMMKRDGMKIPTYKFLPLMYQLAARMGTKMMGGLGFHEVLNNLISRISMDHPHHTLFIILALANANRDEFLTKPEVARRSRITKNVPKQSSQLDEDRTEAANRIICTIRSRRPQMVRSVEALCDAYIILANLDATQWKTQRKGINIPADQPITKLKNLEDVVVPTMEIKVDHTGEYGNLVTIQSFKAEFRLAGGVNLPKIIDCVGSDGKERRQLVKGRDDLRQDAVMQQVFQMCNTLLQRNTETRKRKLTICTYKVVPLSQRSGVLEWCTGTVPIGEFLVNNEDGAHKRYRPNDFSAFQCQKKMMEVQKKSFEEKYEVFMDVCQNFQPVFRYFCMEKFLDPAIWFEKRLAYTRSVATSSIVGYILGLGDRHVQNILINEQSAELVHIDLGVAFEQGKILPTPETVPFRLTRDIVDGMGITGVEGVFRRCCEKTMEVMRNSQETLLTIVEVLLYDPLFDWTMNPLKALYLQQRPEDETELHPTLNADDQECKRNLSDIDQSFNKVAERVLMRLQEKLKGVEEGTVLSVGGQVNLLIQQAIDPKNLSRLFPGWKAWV
Procedure: Inhibition of cellular ATM activity was determined by changes in etoposide-stimulated KAP1 phosphorylation, based on the work of Guo et al. 2014.
Cryopreserved U20S cells were plated overnight at 6 k cells/well in black walled, clear bottomed 384 well plates (Greiner Bio One 781090). After overnight incubation (37 C, 5% CO2), cells were incubated with titrations of test compounds (0.3% DMSO final) in the presence of 100 μM etoposide (Sigma E1383) to stimulate ATM via induction of double stranded DNA breaks. After 60 min, cells were fixed using 100% cold methanol and incubated at −20° C. for 10 min. Fixed cells were washed with PBS containing 0.05% (v/v) Tween 20 (PBS-T) prior to a 60 minute blocking step in Odyssey blocking buffer (LI-COR Biosciences 92740000). Primary antibodies (1:1000 phosphorylated KAP1: Cell Signalling Technology 4127, 1:5000 total KAP1: Cell Signaling Technology 5868) were diluted in Odyssey blocking buffer and incubated overnight at 4° C., before addition of IRDye(R) conjugated secondary antibodies (LI-COR Biociences 926-32211, LI-COR Biosciences 926-68070) diluted 1:2000 in Odyssey blocking buffer for 60 min at room temperature and detection by LI-COR Odyssey (ImageStudio version 2.1.10, focus offset 4 mm, resolution 169 μm, lowest quality, intensities of 1 and 3 for 700 and 800 channels respectively). Immunoreactivity was quantified and the ratio of phosphorylated KAP1 calculated by dividing by the total KAP1 immunoreactivity. The percentage of inhibition was calculated for each concentration of compound using 100% (100 μM etoposide+30 μM KU-60019) and 0% effect controls (100 μM etoposide+DMSO). IC50 values represent the mean from at least two independent experiments.

Recombinant, full length human FLAG-tagged ATM, sequence (Q13315 whole entry): as above

Row | SMILES | IC50 [1] [nM] | IC50 [2] [nM] | biological activity in the biochemical assay ([1]; qualitative statement used for stereochemical assignment)
1 | CC(C)(c1ccccc1)[C@H]1CCCN1c1nc(N2CCOCC2)cc(=O)[nH]1 [Example 196] | 46.9 | 975 | –
2 | Cn1c(N2CCC[C@@H]2Cc2ccccc2)nc(N2CCOCC2)cc1=O [Example 176, (R)-2-(2-benzylpyrrolidin-1-yl)-3-methyl-6-morpholinopyrimidin-4(3H)-one] | 5.1 | 462 | –
3 | O=c1cc(N2CCOCC2)cc(N2C[C@H]3C[C@H]3[C@@H]2Cc2ccccc2)[nH]1 [Example 43, 6-((1R,2S,5S)-2-benzyl-3-azabicyclo[3.1.0]hexan-3-yl)-4-morpholinopyridin-2(1H)-one] | 9.6 | 293 | –
4 | C[C@@H]1CN(c2cc(=O)[nH]c(N3CCC[C@@H]3Cc3ccccc3)n2)CCO1 [Example 271, 2-((R)-2-benzylpyrrolidin-1-yl)-6-((R)-2-methylmorpholino)pyrimidin-4(3H)-one] | 24.1 | 2140 | –
5 | O=c1cc(N2CCOCC2)cc(N2CC[C@@H](OC(F)F)[C@@H]2Cc2ccccc2)[nH]1 [Example 90, 6-((2S,3R)-2-benzyl-3-(difluoromethoxy)pyrrolidin-1-yl)-4-morpholinopyridin-2(1H)-one] | 39.1 | 874 | –
6 | C[C@H]1CCCN(c2nc(N3CCOCC3)cc(=O)[nH]2)[C@@H](Cc2ccccc2)C1 [Example 233] | 1.2 | 327 | –
7 | O=c1cc(N2CCOCC2)nc(N2CCC[C@@H]2Cc2ccc(F)cc2)[nH]1 [Example 193] | 9.7 | 598 | –
8 | CC1C[C@H](Cc2ccccc2)N(c2cc(N3CCOCC3)cc(=O)[nH]2)C1 (single isomer, unassigned) [Example 101, 6-((2R,4R*)-2-benzyl-4-methylpyrrolidin-1-yl)-4-morpholinopyridin-2(1H)-one] | 17.1 | 1410 | –
9 | C[C@@H]1CN(c2cc(=O)[nH]c(N3CCCCC[C@@H]3Cc3ccccc3)n2)C[C@@H](C)O1 [Example 349, 2-((R)-2-benzylazepan-1-yl)-6-((2R,6R)-2,6-dimethylmorpholino)pyrimidin-4(3H)-one] | 7.5 | 345 | –
10 | COCCOc1ccc(C[C@H]2CCCCCN2c2nc(N3CCO[C@H](C)C3)cc(=O)[nH]2)cc1 [Example 309, 2-((R)-2-(4-(2-methoxyethoxy)benzyl)azepan-1-yl)-6-((R)-2-methylmorpholino)pyrimidin-4(3H)-one] | 6.2 | 256 | –
11 | C[C@H]1CCCN(c2nc(N3CCO[C@H](C)C3)cc(=O)[nH]2)[C@@H](Cc2ccccc2)C1 [Example 312, 2-((2R,4S)-2-benzyl-4-methylazepan-1-yl)-6-((R)-2-methylmorpholino)pyrimidin-4(3H)-one] | 44.7 | 1740 | –
12 | CC1COCCN1c1cc(=O)[nH]c(N2CCCC2Cc2ccccc2)n1 (single isomer, unassigned) [Example 339, 2-(2-benzylpyrrolidin-1-yl)-6-(3-methylmorpholino)pyrimidin-4(3H)-one] | 34.5 | 1560 | –
13 | COc1cccc(C[C@H]2CCCCCN2c2cc(N3CCOCC3)cc(=O)[nH]2)c1 [Example 23, (R)-6-(2-(3-methoxybenzyl)azepan-1-yl)-4-morpholinopyridin-2(1H)-one] | 6.5 | 527 | –
14 | CC1(C)CCCN(c2cc(N3CCOCC3)cc(=O)[nH]2)[C@@H](Cc2ccccc2)C1 [Example 76, (R)-6-(2-benzyl-4,4-dimethylazepan-1-yl)-4-morpholinopyridin-2(1H)-one] | 70.2 | 2680 | –
15 | O=c1cc(N2CCOCC2)cc(N2CCCC(F)(F)C[C@@H]2Cc2ccccc2)[nH]1 [Example 74, (S)-6-(2-benzyl-4,4-difluoroazepan-1-yl)-4-morpholinopyridin-2(1H)-one] | 11.2 | 498 | –
16 | O=c1cc(N2CCOCC2)cc(N2CCC[C@@H]2Cc2ccc(F)cc2)[nH]1 [Example 16, (R)-6-(2-(4-fluorobenzyl)pyrrolidin-1-yl)-4-morpholino pyridin-2(1H)-one] | 89.4 | 4160 | –

Row | SMILES | IC50 [1] [nM] | IC50 [2] [nM] | biological activity in the biochemical assay ([1]; qualitative statement used for stereochemical assignment)
17 | O=c1cc(N2CCOCC2)nc(N2CCCCC[C@@H]2Cc2cccc(F)c2F)[nH]1 [Example 223] | 26.3 | 512 | –
18 | O=c1cc(N2CCOCC2)cc(N2C[C@@H]3CC[C@@H](C3)[C@@H]2Cc2ccccc2)[nH]1 [Example 134] | 13.9 | 581 | –
19 | COCCOc1cccc(C[C@H]2CCCCCN2c2nc(N3CCO[C@H](C)C3)cc(=O)[nH]2)c1 [Example 308, 2-((R)-2-(3-(2-methoxyethoxy)benzyl)azepan-1-yl)-6-((R)-2-methylmorpholino)pyrimidin-4(3H)-one] | 14.3 | 560 | –
20 | CO[C@@H]1CCN(c2cc(N3CCOCC3)cc(=O)[nH]2)[C@H]1Cc1ccccc1 [Example 88, 6-((2S,3R)-2-benzyl-3-methoxypyrrolidin-1-yl)-4-morpholinopyridin-2(1H)-one] | 53 | 1660 | –
21 | C[C@@H]1CN(c2cc(=O)[nH]c(N3C[C@@H]4C[C@@H]4[C@@H]3Cc3ccccc3)n2)CCO1 [Example 292, 2-((1S,2S,5R)-2-benzyl-3-azabicyclo[3.1.0]hexan-3-yl)-6-((R)-2-methylmorpholino)pyrimidin-4(3H)-one] | 5.5 | 1310 | –
22 | COc1ccc(F)cc1C[C@H]1CCCCCN1c1cc(N2CCOCC2)cc(=O)[nH]1 [Example 86] | 65 | 1380 | –
23 | COc1c(F)cccc1C[C@H]1CCCCCN1c1nc(N2CCOCC2)cc(=O)[nH]1 [Example 231] | 84 | 1090 | –
24 | C[C@@H]1CN(c2cc(=O)[nH]c(N3CCCCC[C@@H]3Cc3cccc(F)c3F)n2)CCO1 [Example 300, 2-((R)-2-(2,3-difluorobenzyl)azepan-1-yl)-6-((R)-2-methylmorpholino)pyrimidin-4(3H)-one] | 93.7 | 586 | –
25 | O=c1cc(N2CCOCC2)nc(N2CCCCC[C@@H]2Cc2ccc(F)cc2)[nH]1 [Example 222] | 5.7 | 163 | –
26 | COc1ccccc1C[C@H]1CC2(CC2)CN1c1nc(N2CCOCC2)cc(=O)[nH]1 [Example 264, (R)-2-(6-(2-methoxybenzyl)-5-azaspiro[2.4]heptan-5-yl)-6-morpholinopyrimidin-4(3H)-one] | 5.3 | 350 | –
27 | O=c1cc(N2CCOCC2)cc(N2CCCCC[C@@H]2Cc2ccccc2F)[nH]1 [Example 78, (R)-6-(2-(2-fluorobenzyl)azepan-1-yl)-4-morpholinopyridin-2(1H)-one] | 10.8 | 318 | –
28 | C[C@@H]1CN(c2cc(=O)[nH]c(N3CCC[C@@H]3Cc3ccccc3)n2)C[C@@H](C)O1 [Example 347, 2-((R)-2-benzylpyrrolidin-1-yl)-6-((2R,6R)-2,6-dimethylmorpholino)pyrimidin-4(3H)-one] | 23.7 | 528 | –
29 | CC1(C)CCC[C@H](Cc2ccccc2)N(c2nc(N3CCOCC3)cc(=O)[nH]2)C1 [Example 245] | 17.3 | 1240 | –
30 | C[C@@H]1CN(c2cc(=O)[nH]c(N3CCCCC[C@@H]3Cc3cccc4c3OCC4)n2)CCO1 [Example 305, 2-((R)-2-((2,3-dihydrobenzofuran-7-yl)methyl)azepan-1-yl)-6-((R)-2-methylmorpholino)pyrimidin-4(3H)-one] | 39 | 569 | –
31 | O=c1cc(N2CCOCC2)cc(N2CCC[C@H]2Cc2ccccc2)[nH]1 [Example 2, (S)-6-(2-benzylpyrrolidin-1-yl)-4-morpholinopyridin-2(1H)-one] | – | – | lack of biological activity
